Article PMC6963673, “Phenylboronic Acids Probing Molecular Recognition against Class A and Class C β-lactamases” (Antibiotics, 2019)
Like-named read-outs stand apart in the source and are kept apart here.

Legend:
[1] = system: Pseudomonas aeruginosa overexpressing AmpC; assay: Checkerboard microdilution assay and FICI, ceftazidime plus inhibitor; type: cell-based; details: for MIC Antibiotic: antibiotic alone; for FICI Antibiotic + inhibitor: CAZ + inhibitor, synergy FICI ≤0.5, indifference >0.5 and ≤4, antagonism >4; for nature of interaction with antibiotic: Pseudomonas aeruginosa, in combination with CAZ
Description: To investigate the ability of our phenylboronic acid derivatives 2-5 to reach the periplasmic space, where SBLs are secreted and concentrated in Gram negative bacteria, and synergically protect β-lactam antibiotics hydrolysis by BLs, drug interactions model via the fractional inhibitory concentration index (FICI) was determined against clinical strains overexpressing BLs targets of our studies (Table 2).
(§1) To assess the nature of the in vitro interactions between the compounds and antibiotics against selected clinical strains, the data obtained from the checkerboard assay were used to calculate the fractional inhibitory concentration index (FICI). Briefly, exponential cultures of the bacterial strains in Mueller Hinton broth were inoculated in the wells of microtiter plates containing different concentrations of the cited antibiotics, with and without phenylboronic acids, and incubated at 37 °C for 18 hours. The growth in each well was quantified spectrophotometrically at 595 nm by a microplate reader TECAN Infinite (Tecan Trading AG, Switzerland). The minimal inhibitory concentration (MIC) for each drug and combination of drugs was defined as the concentration of drug that reduced growth by 80% compared to that of organisms grown in the absence of drug. The fractional inhibitory concentration index (FICI) is the mathematical expression of the effect of the combination of antibacterial agents expressed in Equation (1):(1) ΣFIC=FICA+FICB=MICAB/MICA+MICBA/MICB in which MICA and MICB are the MICs of drugs A and B acting alone, and MICAB and MICBA are the MICs of drugs A and B in combination. Synergy is defined when the FICI is ≤0.5, antagonism when the FICI is > 4, and indifference when the FICI is >0.5 and ≤4.

[2] = target: T1, AmpC (Pseudomonas aeruginosa, UniProt P24735); details: read-out: AmpC Ki; lead phenylboronic acid; cited from earlier work
T1 construct: subcloned into pRham vector to have it in the full-length version; made in house; host or cells: E. coli BL21(DE3), plasmid pRham-AmpC

[3] = target: T2, KPC-2 (Klebsiella pneumoniae, UniProt Q9F663); assay: In vitro enzyme inhibition assay against KPC-2 (nitrocefin reporter substrate); type: biochemical; details: for drop in potency against KPC-2: meta substituent
T2 construct: made in house
Excerpt: (§2) Expression and purification of recombinant KPC-2 and GES-5 have been performed as already reported. For recombinant AmpC from Pseudomonas aeruginosa, the optimized full-length synthetic gene was purchased (GeneArt service under Life Technologie) and subcloned into pRham vector to have it in the full-length version. Protein was expressed according to standard protocol: P. aeruginosa AmpC-β-lactamase was obtained from a culture of E. coli BL21(DE3), carrying the plasmid vector pRham-AmpC. 1L of LB-medium with kanamycin 50 μg/mL, at 37 °C, 150 RPM for 24 hrs. Expression was induced by 0.2% w/v Rhamnose. After 5–6 hours the cell broth was centrifuged at 4500 RPM, 4 °C, for 20 min. The sample was loaded on a column packed with 25 mL of Affigel-10 (Biorad) functionalized with 3 MAPB (3-methylaminophenylboronic acid). The column was previously equilibrated with the loading buffer. The protein was eluted (flow rate, 1 mL/min) with 5 column-volumes of elution-buffer (0.5 M boric acid, 0.5 M NaCl, pH 7.0). β-lactamase activity was checked in each elution fraction using 200 μM CENTA [35]. Active fractions were pooled, concentrated by ultrafiltration using a Millipore Ultra-15 (Ultracel-10K; Millipore) and checked by SDS-Page. The protein pool final concentration (1 mg/mL) was assessed using Bradford and UV-Vis assays. Purified AmpC β-lactamase was stored at −80 °C [36].
(§3) The half-maximal inhibitory concentration (IC50) of phenylboronic acid derivatives was determined as follows. Reactions were monitored using a Jasco V-730 spectrophotometer at […] wavelength. Boronic acids were dissolved in dimethyl sulfoxide (DMSO) to a concentration of 10 mM and stored at −20°C. Each compound was tested at concentrations ranging from 1 µM to 200 µM for inhibitory activity vs full-length KPC-2 enzyme, GES-5 and AmpC in 50 mM of PB + 50 mM KCl at pH 7.4 at 25°C with 0.01% v/v Triton X-100, to avoid compound aggregation and promiscuous inhibition in presence of nitrocefin as reported substrate. For tests against KPC-2, reporter substrate nitrocefin was used at 40 μM, (Km 36 μM) while for tests against GES-5 and AmpC reporter substrate nitrocefin was used at 200 μM (Km 208 μM and Km 200 respectively). All the experiments were performed in triplicate. Experimental error never exceeded 5%. The reaction was typically initiated by adding the enzyme to the reaction buffer last. The IC50 values were determined by measuring the rate of hydrolysis of a reporter substrate in the presence of five different inhibitor concentrations at λ 482 nm. The binding affinity ki was estimated, for each compound in the library, from the determined IC50 by Cheng–Prusoff equation as per competitive inhibition (Table 1).

[4] = target: T3, GES-5 (Klebsiella pneumoniae, UniProt Q09HD0); assay: In vitro enzyme inhibition assay against GES-5 (nitrocefin reporter substrate); type: biochemical
T3 construct: made in house
Excerpt: as §2, §3

[5] = target: T1, AmpC; assay: In vitro enzyme inhibition assay against AmpC (nitrocefin reporter substrate); type: biochemical; details: for drop in potency against AmpC: ortho substitution
Excerpt: as §2, §3

[6] = system: clinical isolates of Klebsiella pneumoniae expressing KPC-2; assay: Checkerboard microdilution assay and FICI, meropenem plus inhibitor; type: cell-based; details: for FICI Antibiotic + inhibitor: MEM + inhibitor, synergy FICI ≤0.5, indifference >0.5 and ≤4, antagonism >4; for nature of interaction with antibiotic: Klebsiella pneumoniae strains, in combination with MEM
Description: as §1

T3 sequence (Q09HD0 19-287): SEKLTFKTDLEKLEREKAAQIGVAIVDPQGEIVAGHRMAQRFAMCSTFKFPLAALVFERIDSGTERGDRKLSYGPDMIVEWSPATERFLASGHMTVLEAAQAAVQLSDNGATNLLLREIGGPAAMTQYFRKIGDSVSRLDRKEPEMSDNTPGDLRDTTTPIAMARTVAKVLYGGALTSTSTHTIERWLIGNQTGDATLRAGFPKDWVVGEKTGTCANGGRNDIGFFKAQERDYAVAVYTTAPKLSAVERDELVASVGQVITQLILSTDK
T1 sequence (P24735 27-397): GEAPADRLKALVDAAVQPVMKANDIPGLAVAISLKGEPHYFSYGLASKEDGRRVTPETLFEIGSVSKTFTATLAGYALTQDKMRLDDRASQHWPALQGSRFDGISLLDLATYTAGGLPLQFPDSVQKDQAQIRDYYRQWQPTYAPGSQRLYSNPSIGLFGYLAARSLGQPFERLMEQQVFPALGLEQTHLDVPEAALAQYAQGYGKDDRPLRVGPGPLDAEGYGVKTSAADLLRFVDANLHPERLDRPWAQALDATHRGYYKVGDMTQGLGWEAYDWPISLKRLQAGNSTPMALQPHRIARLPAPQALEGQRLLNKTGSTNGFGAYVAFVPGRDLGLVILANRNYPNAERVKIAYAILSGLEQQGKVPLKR
T2 sequence (Q9F663 25-293 limits assumed): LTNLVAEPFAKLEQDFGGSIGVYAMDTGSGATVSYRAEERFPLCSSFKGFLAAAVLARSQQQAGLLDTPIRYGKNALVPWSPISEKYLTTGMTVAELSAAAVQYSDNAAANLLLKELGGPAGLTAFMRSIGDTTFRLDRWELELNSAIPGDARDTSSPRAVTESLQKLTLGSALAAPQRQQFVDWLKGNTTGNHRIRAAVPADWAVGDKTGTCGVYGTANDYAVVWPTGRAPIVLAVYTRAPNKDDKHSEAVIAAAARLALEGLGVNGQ

Compound | MIC Antibiotic ([1]; P aeruginosa 12) [µg/mL] | MIC Antibiotic ([1]; P aeruginosa 148) [µg/mL] | Ki [2] [µM] | Ki [3] [µM] | Ki [4] [µM] | higher activity against GES-5 with respect to KPC-2 ([4]; ratio of Ki KPC-2 to Ki GES-5) [fold] | Ki [5] [µM] | drop in potency against AmpC [5] | FICI Antibiotic + inhibitor ([6]; Klebsiella 53A8) | FICI Antibiotic + inhibitor ([6]; Klebsiella 53A9) | FICI Antibiotic + inhibitor ([6]; Klebsiella 99D8) | nature of interaction with antibiotic [6] | FICI Antibiotic + inhibitor ([1]; P aeruginosa 12) | FICI Antibiotic + inhibitor ([1]; P aeruginosa 148) | drop in potency against KPC-2 [3] | nature of interaction with antibiotic [1]
CC(C)(O/N=C(\C(=O)N[C@@H]1C(=O)N2C(C(=O)[O-])=C(C[n+]3ccccc3)CS[C@H]12)c1csc(N)n1)C(=O)O [CAZ, ceftazidime, reference compound] | 32 | 128 | – | – | – | – | – | – | – | – | – | – | – | – | – | –
OB(O)c1ccccc1 [Compound 1, phenylboronic acid] | – | – | 4.85 | – | – | – | – | – | – | – | – | – | – | – | – | –
O=C(O)C=Cc1ccccc1B(O)O [Compound 2, [2-(2-carboxyvinyl)-phenyl]boronic acid] | – | – | – | 2.43 | 0.11 | 23 | 41.7 | up to 50 fold | 0.0117 | 0.0175 | 0.0156 | clear synergistic activity | 2 | 1 | – | –
O=C(O)C=Cc1cccc(B(O)O)c1 [Compound 3, [3-(2-carboxyvinyl)phenyl] boronic acid] | – | – | – | 31.2 | 24.6 | – | 1.45 | – | 2 | 1.5 | 2 | – | 0.5 | 0.375 | up to 47 fold | synergism can be defined
O=C(O)CCc1ccccc1B(O)O [Compound 4] | – | – | – | 1.13 | 1.83 | – | 76.1 | up to 50 fold | 0.1875 | 0.2500 | 0.1250 | clear synergistic activity | 2 | 1.5 | – | –
O=C(O)CCc1cccc(B(O)O)c1 [Compound 5] | – | – | – | 53 | 69.4 | – | 5.3 | – | 2 | 1.5 | 2 | – | 0.3750 | 0.0936 | up to 47 fold | synergism can be defined
